Source: ChEMBL document CHEMBL4699469, “Recent Developments in the Biology and Medicinal Chemistry of CDK9 Inhibitors: An Update” (J Med Chem, 2020)
Values after ≈ are worked out from the molar mass of the structure shown.

What was measured:
MOLM-13 [1] = test: Antiproliferative activity against human MOLM-13 cells incubated for 72 hrs by Cell Titre-Glo luminescent assay; format: functional, cell-based; conditions: MOLM-13, 72 h
A2780 = test: Antiproliferative activity against human A2780 cells incubated for […] by crystal violet staining based assay; format: functional, cell-based
[2] = molecular target: T1, Cyclin-dependent kinase 2 (Homo sapiens, UniProt P24941); test: Inhibition of CDK2 (unknown origin) using Ulight-labeled substrate by TR-FRET LANCE method
[3] = molecular target: Cyclin-dependent kinase 4 (Homo sapiens, UniProt P11802); test: Inhibition of CDK4 (unknown origin) using Ulight-labeled substrate by TR-FRET LANCE method
[4] = molecular target: Cyclin-dependent kinase 8 (Homo sapiens, UniProt P49336); test: Inhibition of CDK8 (unknown origin) by TR-FRET assay
NCI-H929 = test: cells; conditions: Homo sapiens, NCI-H929, 24 h
[5] = Plasma clearance in Sprague-Dawley rat at 1 mg/kg, iv measured after 24 hrs by reverse phase HPLC analysis; format: ADME, organism-based
[6] = molecular target: T2, Cyclin-dependent kinase 7 (Homo sapiens, UniProt P50613); test: Inhibition of CDK7 (unknown origin) using Ulight-labeled substrate by TR-FRET LANCE method
[7] = molecular target: Cyclin-dependent kinase 6 (Homo sapiens, UniProt Q00534); test: Inhibition of CDK6 (unknown origin) using Ulight-labeled substrate by TR-FRET LANCE method
MV4-11 [8] = test: cells; conditions: Homo sapiens, MV4-11, 24 h
[9] = molecular target: T3, Cyclin-dependent kinase 1 (Homo sapiens, UniProt P06493); test: Inhibition of CDK1 (unknown origin) using Ulight-labeled substrate by TR-FRET LANCE method
CDK9/cyclin T1 [10] = molecular target: T4, CDK9/cyclin T1 (Homo sapiens, UniProt P50750); test: Inhibition of His-tagged human CDK9/cyclin T1 expressed in insect cells using biotinylated-cdk7tide peptide incubated for 5 hrs by Alpha Screen assay
CDK7/Cyclin H/MNAT1 = CDK7/Cyclin H/MNAT1 (Homo sapiens, UniProt P50613); test: Displacement of Alexa Fluor 647 ADP Tracer from human CDK7/CyclinH/MAT1 expressed in baculovirus expression system incubated for 1 hr by adapta assay
MOLT-4 = test: Antiproliferative activity against human MOLT4 cells incubated for 72 hrs by cell titer glo assay; format: functional, cell-based; conditions: MOLT-4, 72 h
CDK9/cyclin T1 [11] = molecular target: T4, CDK9/cyclin T1; test: Displacement of Alexa Fluor 647 ADP Tracer from His-tagged human CDK9/Cyclin T1 expressed in baculovirus expression system incubated for 1 hr by adapta assay
CDK9/cyclin T1 [12] = molecular target: T4, CDK9/cyclin T1; test: Inhibition of human CDK9 (1 to 372 residues)/N-terminal GST-fused His-tagged CyclinT1 (1 to 726 residues) expressed in baculovirus expression system incubated for 0.5 to 1 hr by TR-FRET assay
[13] = molecular target: Cyclin-dependent kinase 2/cyclin E1 (Homo sapiens, UniProt P24941); test: Inhibition of His-tagged human CDK2/cyclin E1 expressed in insect cells using biotin Ttds-YISPLKSPYKISEG as substrate preincubated for 15 mins followed by ATP and substrate addition and measured after 25 mins by TR-FRET assay
[14] = molecular target: Glycogen synthase kinase-3 beta (Homo sapiens, UniProt P49841); test: Inhibition of human GSK3beta
[15] = molecular target: Glycogen synthase kinase-3 alpha (Homo sapiens, UniProt P49840); test: Inhibition of human GSK3alpha
CDK3/Cyclin E = CDK3/Cyclin E (Homo sapiens, UniProt Q00526); test: Inhibition of C-terminal His6-tagged human CDK3/N-terminal GST-tagged human cyclin E expressed in baculovirus infected Sf21 insect cells
[16] = Thermodynamic solubility of the compound at pH 6.5 incubated for 24 hrs by equilibrium shake flask; format: physicochemical; conditions: buffer, read-out: Therm_solubility
[17] = Oral bioavailability in Wistar rats at 0.6 to 1 mg/kg measured up to 24 hrs by LC-MS/MS analysis; format: ADME, organism-based; conditions: rat, in vivo, dose 0.6-1 mg/kg
[18] = molecular target: T5, Cyclin-dependent kinase 9 (Homo sapiens, UniProt P50750); test: Binding affinity to wild-type human full length CDK9 (M1 to F372 residues) expressed in bacterial expression system by Kinomescan method
[19] = molecular target: T2, Cyclin-dependent kinase 7; test: Binding affinity to wild-type human full length CDK7 (M1 to L344 residues) expressed in mammalian expression system by Kinomescan method
MOLM-13 [20] = test: Antiproliferative activity against human MOLM-13 cells; format: functional, cell-based
MV4-11 [21] = test: Antitumor activity against human MV4-11 cells xenografted in mouse assessed as tumor growth inhibition at 7.5 mg/kg relative to control; format: functional; conditions: read-out: TGI
[22] = Solubility of the compound at pH 6.8; format: physicochemical; conditions: buffer
[23] = molecular target: T5, Cyclin-dependent kinase 9
[24] = Solubility of the compound at pH 8.7; format: physicochemical; conditions: buffer
[25] = Oral bioavailability in mouse; format: ADME, organism-based; conditions: in vivo
[26] = molecular target: T2, Cyclin-dependent kinase 7; test: Inhibition of CDK7 in human MCF7 cells assessed as RNA polymerase2 phosphorylation at serine 5 residue residue incubated for 6 hrs by immunoblot analysis; format: cell-based
[27] = Half life in rat; format: ADME; conditions: in vivo
[28] = Half life in dog; format: ADME, Canis lupus familiaris; conditions: in vivo
[29] = molecular target: T3, Cyclin-dependent kinase 1; test: Inhibition of CDK1 in human MCF7 cells assessed as reduction in PP1alpha phosphorylation at T320 residue incubated for 6 hrs by immunoblot analysis; format: cell-based
[30] = Half life in monkey; format: ADME, Macaca mulatta; conditions: rhesus monkey, in vivo
[31] = molecular target: T1, Cyclin-dependent kinase 2; test: Inhibition of CDK2 in human MCF7 cells assessed as reduction in Rb phosphorylation at T821 residue incubated for 6 hrs by immunoblot analysis; format: cell-based
[32] = molecular target: Cyclin-dependent kinase 4/6 (Homo sapiens, UniProt P11802+Q00534); test: Inhibition of CDK4/6 in human MCF7 cells assessed as reduction in Rb phosphorylation at S807/811 residue incubated for 6 hrs by immunoblot analysis; format: cell-based
OPM-2 = test: Growth inhibition of human OPM-2 cells incubated for 24 hrs; format: functional

`Cc1cc(CS(C)(=O)=O)cc(Nc2ncc(F)c(-c3ccc(F)c4ccoc34)n2)c1` gave an IC50 (MOLM-13 [1]) of 46 nM and an IC50 (A2780) of 38 nM.
`COc1ccc(F)cc1-c1c(F)cnc2[nH]c(C3=CCN([C@H]4CC[C@H](C(=O)O)CC4)CC3)cc12` gave an IC50 [2] of over 320 nM, an IC50 [3] of 162 nM and an IC50 [4] of over 320 nM. For the same compound, the IC50 (NCI-H929) was 40 nM, the clearance [5] was 10.5 mL/min/kg and the IC50 [6] was over 320 nM. The IC50 [7] was 101 nM, the IC50 (MV4-11 [8]) was 138 nM and the IC50 [9] was over 320 nM.
Compound `O=C(Nc1cc(-c2cccc(NCc3cccc(F)c3)n2)c(Cl)cn1)[C@H]1CNCCO1` has an IC50 (CDK9/cyclin T1 [10]) of under 8 nM.
`COC[C@H](C)N[C@H]1CC[C@H](Nc2cc(-c3cccc(NCC4(C#N)CCOCC4)n3)c(Cl)cn2)CC1` gave an IC50 (CDK7/Cyclin H/MNAT1) of over 10000 nM, an IC50 (MOLT-4) of 9 nM and an IC50 (CDK9/cyclin T1 [11]) of under 0.5 nM.
`COc1ccc(F)cc1-c1ncnc2[nH]c(C3CCNCC3)cc12` showed an IC50 (CDK9/cyclin T1 [12]) of 13 nM.
`COc1cc(F)ccc1-c1ncnc(Nc2cccc(CCS(C)(=O)=O)c2)n1` showed an IC50 [13] of 558 nM.
`COc1cc(F)ccc1-c1ncnc(Nc2cccc(C[S@](C)(=N)=O)c2)n1` [ATUVECICLIB] gave an IC50 [14] of 87 nM, an IC50 [15] of 45 nM and an IC50 (CDK3/Cyclin E) of over 890 nM. The solubility thermodynamic at 24 h [16] was 479 µg/mL (≈ 1.24 mM) and the bioavailability [17] was 54%.
In the case of `CC(C)(C)c1cnc(CSc2cnc(NC(=O)C3CCNCC3)s2)o1` [BMS-387032], the IC50 (MOLT-4) is reported as 173 nM.
With `Cn1ncc(-c2nc(N[C@H]3CC[C@H](N)CC3)ncc2Cl)c1CC1CC1` [BTX-A51] the Kd [18] was 4 nM and the Kd [19] was 1.3 nM.
In the case of `COc1cc(F)ccc1-c1cc(Nc2cc(CS(C)(=N)=O)ccn2)ncc1F` (centres undefined) [ENITOCICLIB], the IC50 (MOLM-13 [20]) is reported as 29 nM.
In the case of `CN1CC[C@H](c2c(OP(=O)(O)O)cc(O)c3c(=O)cc(-c4ccccc4Cl)oc23)[C@H](O)C1` [TP-1287], the inhibition in vivo at 7.5 mg/kg (MV4-11 [21]) is reported as 109%, the solubility [22] is reported as 9500 µg/mL (≈ 19.7 mM) and the IC50 [23] is reported as 84 nM. The solubility [24] was 9300 µg/mL (≈ 19.3 mM) and the F [25] was 182.3%.
Compound `CC(=O)N[C@@H]1CCC[C@H](C(=O)Nc2cc(-c3cnn4c3CC(C)(C)C4)c(Cl)cn2)C1` [ZEMIRCICLIB] has an IC50 [26] of 1100 nM, a half-life [27] of under 1 h and a half-life [28] of under 1 h. It also gave an IC50 [29] of 370 nM, a half-life [30] of under 1 h and an IC50 [31] of over 10000 nM. For the same compound, the IC50 [32] was over 10000 nM and the GI50 (OPM-2) was 23 nM.
